Values after ≈ are worked out from the molar mass of the structure shown.
Columns and labels:
Assay type in all cases: functional
Staphylococcus aureus [1] = assay: Antimicrobial activity against methicillin-resistant Staphylococcus aureus ST398 isolate 11 containing apmA, erm(B), tet(L), tet(M), tet(K), dfrK, aadD, mecA, blaZ resistance genes by CLSI M31-A3 method
Staphylococcus aureus [2] = assay: Antimicrobial activity against Staphylococcus aureus RN4220 by CLSI M31-A3 method
Staphylococcus aureus [3] = assay: Antimicrobial activity against Staphylococcus aureus RN4220 carrying pAFS11-apmA, erm(B), tet(L), dfrK, aadD resistance genes by CLSI M31-A3 method

Molecule | MIC (Staphylococcus aureus [1]) [µg/mL] | MIC (Staphylococcus aureus [2]) [µg/mL] | MIC (Staphylococcus aureus [3]) [µg/mL]
CN[C@@H]1[C@@H](O[C@H]2O[C@H](CO)[C@@H](N)[C@H](O)[C@H]2O)OC2C[C@@H](N)[C@@H](O[C@H]3[C@H](O)[C@@H](O)[C@H](N)C[C@@H]3N)OC2[C@@H]1O (some centres not stated) [APRAMYCIN] | ≥ 128 | 1 (≈ 1.85 µM) | ≥ 128
CCC[C@@H]1C[C@@H](C(=O)N[C@@H]([C@H]2O[C@H](SC)[C@H](O)[C@@H](O)[C@H]2O)[C@H](C)Cl)N(C)C1 [CLINDAMYCIN] | ≥ 128 | ≤ 0.12 | ≥ 128
CC[C@H]1OC(=O)[C@H](C)[C@@H](O[C@H]2C[C@@](C)(OC)[C@@H](O)[C@H](C)O2)[C@H](C)[C@@H](O[C@@H]2O[C@H](C)C[C@H](N(C)C)[C@H]2O)[C@](C)(O)C[C@@H](C)C(=O)[C@H](C)[C@@H](O)[C@]1(C)O [ERYTHROMYCIN] | ≥ 64 | 0.12 (≈ 0.164 µM) | ≥ 64
NC[C@@H]1O[C@H](O[C@H]2[C@@H](O)[C@H](O[C@@H]3[C@@H](O)[C@H](N)C[C@H](N)[C@H]3O[C@H]3O[C@H](CN)[C@@H](O)[C@H](O)[C@H]3N)O[C@@H]2CO)[C@H](N)[C@@H](O)[C@@H]1O [FRAMYCETIN] | 128 (≈ 208 µM) | ≤ 1 | 32 (≈ 52.1 µM)
NC[C@H]1O[C@H](O[C@H]2[C@H](O)[C@@H](O[C@H]3O[C@H](CO)[C@@H](O)[C@H](N)[C@H]3O)[C@H](N)C[C@@H]2N)[C@H](O)[C@@H](O)[C@@H]1O [KANAMYCIN] | ≥ 128 | 4 (≈ 8.26 µM) | 64 (≈ 132 µM)
Cc1onc(-c2ccccc2)c1C(=O)N[C@@H]1C(=O)N2[C@@H]1SC(C)(C)[C@@H]2C(=O)O [OXACILLIN] | 16 (≈ 39.9 µM) | 0.12 (≈ 0.299 µM) | 0.12 (≈ 0.299 µM)
CN(C)[C@@H]1C(O)=C(C(N)=O)C(=O)[C@@]2(O)C(O)=C3C(=O)c4c(O)cccc4[C@@](C)(O)[C@H]3C[C@@H]12 [TETRACYCLINE] | 64 (≈ 144 µM) | 0.12 (≈ 0.27 µM) | 32 (≈ 72 µM)
COc1cc(Cc2cnc(N)nc2N)cc(OC)c1OC [TRIMETHOPRIM] | ≥ 256 | 0.5 (≈ 1.72 µM) | ≥ 256
GENTAMICIN | 8 | 0.25 | 8

— ChEMBL document CHEMBL1687809, “Novel apramycin resistance gene apmA in bovine and porcine methicillin-resistant Staphylococcus aureus ST398 isolates” (2011)
